The values below come from US20250067726A1, “METHOD FOR ANALYZING PERSONALIZED ANTI-CANCER DRUGS IN CELL CULTURES” (PreComb Therapeutics AG, priority 2022, published 2025).

Each structure is given as a SMILES string. Read-outs that look alike come from different tables or passages of the source.

A short description of series [1]: Pharmacokinetic parameters (t1/2, Cmax, tmax) identified for the drug panel. Conditions: human, in vivo; Table 1, twice the half-life, main determinant for in vitro incubation time. The source says: The elimination half-life or drug half-life tin generally refers to the time required for half the dose of drug administered to be removed from the body. For those drugs to be tested, where a suitable tin can not be taken from the literature, and/or for the purpose of grouping or forming panels of drugs, tin values may be determined as follows.
In accordance with the existing guidelines, the rate (Cmax, tmax) and extent (AUC) of absorption of drug from a test formulation (vs. reference formulation) is evaluated using a single dose study in healthy volunteer subjects, followed by measuring the blood/plasma concentration of the parent drug and any major active metabolites (if present) for a time period of ≥3 t½.
For a determination of the parameters, blood samples are taken at 0, 1, 2, 3, 4, 5, 6, 7, and 8 hours, optionally followed by 10 and 12, 18, 24, 30, 36, and 42 hours after administration. As a general rule, the more frequently samples around the expected time of the maximum concentration are taken, the more accurate the value of t½ (and tmax and Cmax) are. The above determinations can be made in several individuals, and median values can be determined as parameter e.g. for grouping (see below), and testing.
Grouping or pre-selection of drugs can be achieved based on one or more of the following parameters that are known to the person of skill: • i) Cmax—the value defining the maximal concentration used, • ii) t½, —time until 1/2 of the drug is cleared by the patient/cells (half-life), • iii) Duration of action [h] (length of time that particular drug is effective), • iv) Elimination time [h] (time it takes for the concentration of the drug in the plasma or the total amount in the body to be removed), • v) Area under the curve (AUC) [ng*h/ml], • vi) Clearance (CL) [L/h]

For series [2] the following is noted: cited from earlier work; for Cmax Human: Table 2, human.
In series [3] the test system is Panc-1 cancer cells and NIH3T3 fibroblasts microtumor. Nature of the series: Redosing example: pancreatic cancer microtumor model, drug response. Conditions: dosed once for 7 h or re-dosed for another 7 h with 48 h recovery in between; four independent experiments. Type of series: cell-based. The procedure:
A pancreatic cancer microtumor model consisting of Panc-1 cancer cells and NIH3T3 fibroblasts were treated with either Gemcitabine or 5-Flurouracil. Both drugs were dosed either once for 7 hours or re-dosed for another 7 h with a 48 h recovery time in between (four independent experiments).
A pancreatic cancer microtumor model consisting of Panc-1 cancer cells and NIH3T3 fibroblasts were treated with either Gemcitabine (GEM) and/or 5-Flurouracil (5-FU). Both drugs were dosed either once for 7 hours or re-dosed for another 7 h with a 48 h recovery time in between (four independent experiments).

On to `CC(=O)O[C@@]12CO[C@@H]1C[C@H](O)[C@@]1(C)C(=O)[C@H](O)C3=C(C)[C@@H](OC(=O)[C@H](O)[C@@H](NC(=O)OC(C)(C)C)c4ccccc4)C[C@@](O)([C@@H](OC(=O)c4ccccc4)[C@H]21)C3(C)C` [Docetaxel], for which the twice the half-life (2 × t1/2) in series [1] stood at 82 h. Besides, the t1/2 in series [2] (Table 1, elimination half-life) is recorded as 41 h; in series [2] (Table 2), 41 h. In addition, in series [2], the “Cmax Human” value is 1500 to 2500 ng/mL.

`C#Cc1cccc(Nc2ncnc3cc(OCCOC)c(OCCOC)cc23)c1` [Erlotinib] gave a twice the half-life (2 × t1/2) in series [1] of 48.8 h. Besides, the “Cmax Human” value in series [2] is 2300 ng/mL. Further, the tmax in series [2] (Table 2) is listed as 5.5 h.

For `O=c1[nH]cc(F)c(=O)[nH]1` [Fluorouracil], in series [1], the twice the half-life (2 × t1/2) turned out to be 0.6 h. Also, the “Efficiency on redosing versus single dosing” value in series [3] is reported as “did not improve”. Besides, in series [2] (Table 1, elimination half-life), the t1/2 is reported as 0.3 h.

`Nc1ccn([C@@H]2O[C@H](CO)[C@@H](O)C2(F)F)c(=O)n1` [Gemcitabine] displayed a twice the half-life (2 × t1/2) in series [1] of 0.46 h. Moreover, the “Efficiency on redosing versus single dosing” value in series [3] is recorded as “increased efficiency”. In addition, the t1/2 in series [2] (Table 1, elimination half-life) is recorded as 0.23 h; in series [2] (Table 2) it was 0.23 h. Moreover, the “Cmax Human” value in series [2] was 18500 ng/mL.

Regarding `O=C(c1cc(Cc2n[nH]c(=O)c3ccccc23)ccc1F)N1CCN(C(=O)C2CC2)CC1` [Olaparib], in series [1], the twice the half-life (2 × t1/2) was 23.8 h. For the same molecule, the t1/2 in series [2] (Table 1, elimination half-life) is recorded as 11.9 h. Also, the “Cmax Human” value in series [2] is 5800 ng/mL. In series [2] (Table 2), the t1/2 is on record as 11.9 h and the tmax is 1.3 h.

On to `O=C1[O][Pt]2([NH][C@@H]3CCCC[C@H]3[NH]2)[O]C1=O` [Oxaliplatin], for which the “Cmax Human” value in series [2] is 1200 ng/mL. Besides, the t1/2 in series [2] (Table 2) is listed as 1.86 h.

With `Nc1nc2[nH]cc(CCc3ccc(C(=O)N[C@@H](CCC(=O)O)C(=O)O)cc3)c2c(=O)[nH]1` [Pemetrexed], the twice the half-life (2 × t1/2) in series [1] was 8.8 h. The t1/2 in series [2] (Table 1, elimination half-life) is given as 4.4 h; in series [2] (Table 2), 4.4 h. The “Cmax Human” value in series [2] is 90000 to 150000 ng/mL.

`CC(=O)Nc1cccc(-n2c(=O)n(C3CC3)c(=O)c3c(Nc4ccc(I)cc4F)n(C)c(=O)c(C)c32)c1` [Trametinib] had a twice the half-life (2 × t1/2) in series [1] of 9.6 h. The t1/2 was 4.8 h in series [2] (Table 1, elimination half-life) and 4.35 h in series [2] (Table 2). The “Cmax Human” value in series [2] is 22 ng/mL.
